Test results: ChEMBL document CHEMBL1201862, “PubChem BioAssay data set” (2004)
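Cells were grown in 96-well plates and exposed to each compound for 48 hours at five concentrations; endpoints were interpolated linearly between bracketing concentrations, or set to the highest concentration if not reached. At the GI50, growth is halved.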 Calls of active or inactive are those of the source. Rule as the data show it: active = GI50 up to about 1.1 µM and inactive = higher.

What was measured:
Assay in all cases: NCI tumour cell line growth inhibition, 48 h
UACC-62 = test system: UACC-62
HT-29 = test system: HT-29
TK-10 = test system: TK-10
OVCAR-8 = test system: OVCAR-8
SF-268 = test system: SF-268
SK-MEL-28 = test system: SK-MEL-28
SN12C = test system: SN12C
NCI-H226 = test system: NCI-H226
OVCAR-4 = test system: OVCAR-4
U-251 = test system: U-251
LOX IMVI = test system: LOX IMVI
UO-31 = test system: UO-31
SR = test system: SR
K562 = test system: K562
CCRF-CEM = test system: CCRF-CEM
HCT-116 = test system: HCT-116
HOP-62 = test system: HOP-62
EKVX = test system: EKVX
BT-549 = test system: BT-549
IGROV-1 = test system: IGROV-1
DU-145 = test system: DU-145
SF-539 = test system: SF-539
RPMI-8226 = test system: RPMI-8226
NCI/ADR-RES = test system: NCI/ADR-RES
NCI-H23 = test system: NCI-H23
CAKI-1 = test system: CAKI-1
786-0 = test system: 786-0
SNB-19 = test system: SNB-19
NCI-H460 = test system: NCI-H460
HL-60 = test system: HL-60
Hs-578T = test system: Hs-578T
COLO 205 = test system: COLO 205
Malme-3M = test system: Malme-3M
A549 = test system: A549
KM12 = test system: KM12
SF-295 = test system: SF-295
NCI-H522 = test system: NCI-H522
ACHN = test system: ACHN
MDA-N = test system: MDA-N
MDA-MB-435 = test system: MDA-MB-435
OVCAR-3 = test system: OVCAR-3
SK-MEL-2 = test system: SK-MEL-2
HCT-15 = test system: HCT-15
MDA-MB-231 = test system: MDA-MB-231
HCC 2998 = test system: HCC 2998
SK-MEL-5 = test system: SK-MEL-5
MCF7 = test system: MCF7
SW-620 = test system: SW-620
T47D = test system: T47D
UACC-257 = test system: UACC-257
MOLT-4 = test system: MOLT-4
SNB-75 = test system: SNB-75
SK-OV-3 = test system: SK-OV-3
A498 = test system: A498
HOP-92 = test system: HOP-92
OVCAR-5 = test system: OVCAR-5
M14 = test system: M14
RXF 393 = test system: RXF 393
PC-3 = test system: PC-3

Compound: CN1C(=O)C2CCC(=O)N2c2cccnc21 (configuration not stated)
- GI50 (UACC-62): > 100 µM (inactive)
- GI50 (HT-29): > 100 µM (inactive)
- GI50 (TK-10): > 100 µM (inactive)
- GI50 (OVCAR-8): > 100 µM (inactive)
- GI50 (SF-268): > 100 µM (inactive)
- GI50 (SK-MEL-28): > 100 µM (inactive)
- GI50 (SN12C): > 100 µM (inactive)
- GI50 (NCI-H226): > 100 µM (inactive)
- GI50 (OVCAR-4): > 100 µM (inactive)
- GI50 (U-251): > 100 µM (inactive)
- GI50 (LOX IMVI): > 100 µM (inactive)
- GI50 (UO-31): > 100 µM (inactive)
- GI50 (SR): > 100 µM (inactive)
- GI50 (K562): > 100 µM (inactive)
- GI50 (CCRF-CEM): > 100 µM (inactive)
- GI50 (HCT-116): > 100 µM (inactive)
- GI50 (HOP-62): > 100 µM (inactive)
- GI50 (EKVX): > 100 µM (inactive)
- GI50 (BT-549): > 100 µM (inactive)
- GI50 (IGROV-1): > 100 µM (inactive)
- GI50 (DU-145): > 100 µM (inactive)
- GI50 (SF-539): > 100 µM (inactive)
- GI50 (RPMI-8226): > 100 µM (inactive)
- GI50 (NCI/ADR-RES): > 100 µM (inactive)
- GI50 (NCI-H23): > 100 µM (inactive)
- GI50 (CAKI-1): > 100 µM (inactive)
- GI50 (786-0): > 100 µM (inactive)
- GI50 (SNB-19): > 100 µM (inactive)
- GI50 (NCI-H460): > 100 µM (inactive)
- GI50 (HL-60): > 100 µM (inactive)
- GI50 (Hs-578T): > 100 µM (inactive)
- GI50 (COLO 205): > 100 µM (inactive)
- GI50 (Malme-3M): > 100 µM (inactive)
- GI50 (A549): > 100 µM (inactive)
- GI50 (KM12): > 100 µM (inactive)
- GI50 (SF-295): > 100 µM (inactive)
- GI50 (NCI-H522): > 100 µM (inactive)
- GI50 (ACHN): > 100 µM (inactive)
- GI50 (MDA-N): > 100 µM (inactive)
- GI50 (MDA-MB-435): > 100 µM (inactive)
- GI50 (OVCAR-3): > 100 µM (inactive)
- GI50 (SK-MEL-2): > 100 µM (inactive)
- GI50 (HCT-15): > 100 µM
- GI50 (MDA-MB-231): > 100 µM (inactive)
- GI50 (HCC 2998): > 100 µM (inactive)
- GI50 (SK-MEL-5): > 100 µM (inactive)
- GI50 (MCF7): > 100 µM (inactive)
- GI50 (SW-620): > 100 µM (inactive)
- GI50 (T47D): > 100 µM (inactive)
- GI50 (UACC-257): > 100 µM (inactive)
- GI50 (MOLT-4): > 100 µM (inactive)

Compound: COc1ccc(OC)c(CC(=O)c2ccc(O)c(C(=O)NCCc3ccc(F)cc3)c2)c1
- GI50 (HT-29): 9.86 µM (inactive)
- GI50 (TK-10): 7.23 µM (inactive)
- GI50 (OVCAR-8): 4.23 µM (inactive)
- GI50 (SF-268): 4.13 µM (inactive)
- GI50 (SK-MEL-28): 6.41 µM (inactive)
- GI50 (OVCAR-4): 4.06 µM (inactive)
- GI50 (U-251): 3.6 µM (inactive)
- GI50 (LOX IMVI): 6.95 µM (inactive)
- GI50 (UO-31): 4.76 µM (inactive)
- GI50 (SNB-75): 2.55 µM (inactive)
- GI50 (SR): 0.502 µM (active)
- GI50 (K562): 3.81 µM (inactive)
- GI50 (SK-OV-3): 2.69 µM (inactive)
- GI50 (HOP-62): 1.54 µM (inactive)
- GI50 (EKVX): 7.13 µM (inactive)
- GI50 (BT-549): 12 µM (inactive)
- GI50 (IGROV-1): 3.27 µM (inactive)
- GI50 (DU-145): 1.73 µM (inactive)
- GI50 (RPMI-8226): 4.1 µM (inactive)
- GI50 (NCI/ADR-RES): 2.21 µM (inactive)
- GI50 (NCI-H23): 3.12 µM (inactive)
- GI50 (CAKI-1): 3.26 µM (inactive)
- GI50 (786-0): 4.18 µM (inactive)
- GI50 (SNB-19): 3.79 µM (inactive)
- GI50 (NCI-H460): 3.85 µM (inactive)
- GI50 (HL-60): 2.16 µM (inactive)
- GI50 (A498): 12.2 µM (inactive)
- GI50 (Hs-578T): 3.1 µM (inactive)
- GI50 (COLO 205): 16.9 µM (inactive)
- GI50 (Malme-3M): 2.2 µM (inactive)
- GI50 (A549): 4.49 µM (inactive)
- GI50 (KM12): 3.42 µM (inactive)
- GI50 (SF-295): 2.82 µM (inactive)
- GI50 (HOP-92): 10.8 µM (inactive)
- GI50 (NCI-H522): 2.79 µM (inactive)
- GI50 (ACHN): 10.5 µM (inactive)
- GI50 (MDA-N): 0.498 µM (active)
- GI50 (OVCAR-5): 7.36 µM (inactive)
- GI50 (M14): 2.28 µM (inactive)
- GI50 (MDA-MB-435): 0.615 µM (active)
- GI50 (OVCAR-3): 1.43 µM (inactive)
- GI50 (SK-MEL-2): 2.96 µM (inactive)
- GI50 (HCT-15): 2.3 µM
- GI50 (MDA-MB-231): 4.74 µM (inactive)
- GI50 (RXF 393): 1.09 µM (active)
- GI50 (HCC 2998): 4.63 µM (inactive)
- GI50 (SK-MEL-5): 1.73 µM (inactive)
- GI50 (MCF7): 2.99 µM (inactive)
- GI50 (SW-620): 4.18 µM (inactive)
- GI50 (T47D): 2.8 µM (inactive)
- GI50 (UACC-257): 10.5 µM (inactive)
- GI50 (MOLT-4): 5.04 µM (inactive)

Compound: O=C(Nc1ccc(N2C(=O)CSC2c2cccs2)cc1)c1ccc(N2C(=O)CSC2c2cccs2)cc1 (configuration not stated)
- GI50 (PC-3): > 100 µM (inactive)
- GI50 (UACC-62): 56.5 µM (inactive)
- GI50 (HT-29): > 100 µM (inactive)
- GI50 (TK-10): > 100 µM (inactive)
- GI50 (OVCAR-8): > 100 µM (inactive)
- GI50 (SF-268): > 100 µM (inactive)
- GI50 (SK-MEL-28): > 100 µM (inactive)
- GI50 (SN12C): > 100 µM (inactive)
- GI50 (OVCAR-4): > 100 µM (inactive)
- GI50 (U-251): 86.5 µM (inactive)
- GI50 (LOX IMVI): 88.9 µM (inactive)
- GI50 (UO-31): > 100 µM (inactive)
- GI50 (SNB-75): > 100 µM (inactive)
- GI50 (K562): 56.2 µM (inactive)
- GI50 (CCRF-CEM): 44.2 µM (inactive)
- GI50 (HCT-116): > 100 µM (inactive)
- GI50 (SK-OV-3): > 100 µM (inactive)
- GI50 (HOP-62): 95.3 µM (inactive)
- GI50 (EKVX): > 100 µM (inactive)
- GI50 (BT-549): > 100 µM (inactive)
- GI50 (IGROV-1): > 100 µM (inactive)
- GI50 (DU-145): > 100 µM (inactive)
- GI50 (SF-539): > 100 µM (inactive)
- GI50 (NCI/ADR-RES): > 100 µM (inactive)
- GI50 (NCI-H23): 24.8 µM (inactive)
- GI50 (CAKI-1): > 100 µM (inactive)
- GI50 (786-0): 58.6 µM (inactive)
- GI50 (SNB-19): 49 µM (inactive)
- GI50 (NCI-H460): > 100 µM (inactive)
- GI50 (Hs-578T): > 100 µM (inactive)
- GI50 (COLO 205): > 100 µM (inactive)
- GI50 (Malme-3M): > 100 µM (inactive)
- GI50 (A549): 37.2 µM (inactive)
- GI50 (KM12): > 100 µM (inactive)
- GI50 (SF-295): 53 µM (inactive)
- GI50 (HOP-92): > 100 µM (inactive)
- GI50 (NCI-H522): 36.1 µM (inactive)
- GI50 (ACHN): > 100 µM (inactive)
- GI50 (MDA-N): > 100 µM (inactive)
- GI50 (OVCAR-5): > 100 µM (inactive)
- GI50 (M14): > 100 µM (inactive)
- GI50 (MDA-MB-435): 83.4 µM (inactive)
- GI50 (OVCAR-3): > 100 µM (inactive)
- GI50 (SK-MEL-2): > 100 µM (inactive)
- GI50 (HCT-15): > 100 µM
- GI50 (MDA-MB-231): > 100 µM (inactive)
- GI50 (RXF 393): > 100 µM (inactive)
- GI50 (HCC 2998): > 100 µM (inactive)
- GI50 (SK-MEL-5): > 100 µM (inactive)
- GI50 (MCF7): 62.1 µM (inactive)
- GI50 (SW-620): > 100 µM (inactive)
- GI50 (T47D): 46.5 µM (inactive)
- GI50 (UACC-257): > 100 µM (inactive)
- GI50 (MOLT-4): 39.5 µM (inactive)
